Measured values from US20230100367A1, “METHODS OF TREATING CDGSH IRON SULFUR DOMAIN 2 INSUFFICIENCY-ASSOCIATED DISORDERS” (National Yang Ming Chiao Tung University, priority 2021, published 2023).

Assays:
Cisd2 hKO-het mice = assay: In vivo study for treating nonalcoholic fatty liver disease (NAFLD); settings: 0.015 wt % in diet for 4 weeks
Experimental: Compound 1 was evaluated for its anti-nonalcoholic fatty liver disease (“NAFLD”) effect and in vivo toxicity following an assay described below.
Cisd2 floxed allele (Cisd2 f/f) mice were prepared following a procedure described in Wang et al., Hum. Mol. Genet.23, 4770-85 (2014). To obtain Cisd2 heterozygous hepatocyte-specific knockout (Cisd2 hKO-het, Cisd2 f/+; Alb-Cre Tg), Cisd2 f/f mice were bred with Albumin-Cre transgenic (Alb-Cre Tg, JAX003574) mice. After one generation, Cisd2 hKO-het mice were obtained. Male mice were chosen to be used in this study. All mice have a pure or congenic C57BL/6 background and were bred/housed in a specific pathogen-free facility with a 12 h light/12 h dark cycle at a temperature of 20-22° C. Groups of mice at 8 weeks old were provided a diet (AIN93G, TestDiet) containing a vehicle (0.14 wt % of DMF and 0.15 wt % of Cremophor® EL) or compound 1 (0.015 wt %) for 4 weeks.
Histopathology was used to evaluate the efficacy of Compound 1 in ameliorating NAFLD. Liver tissues were collected and fixed with 10% neutral buffered formalin at 4° C. overnight. They were then processed in a tissue processor (STP120, Microm, Thermo Fisher Scientific Inc., Waltham, Mass.), followed by embedding in paraffin. H&E of tissue sections (3-4 μm) were carried out by a standard protocol. […]

WT mice = assay: In vivo fructose-induced NASH model, wild-type mice; settings: 0.015 wt % in diet for 5 months
Text: Compound 1 was used to alleviate nonalcoholic steatohepatitis (NASH) in wild-type and Cisd2 hKO male mice described above.
Cisd2 hKO were bred for two generations. […] They were fed 30% (w/v) fructose (Alfa Aesar, Tewksbury, Mass.) in drinking water to establish a fructose-induced NASH model. Groups of mice at 2 months old were provided with a diet (AIN93G, TestDiet, St. Louis, Mo.) containing a vehicle (0.14 wt % of DMF and 0.15 wt % of Cremophor® EL) or Compound 1 (0.015 wt %) for 5 months. The food and drinking water were provided ad libitum.
Histopathology was used to evaluate the efficacy of Compound 1 in alleviating NASH. Liver tissues were processed and stained as described in Example 3 above.
An oral glucose tolerance test (GTT) and an insulin tolerance test (ITT) were performed to study beneficial effects of Compound 1 in the fructose-induced glucose intolerance and hepatic insulin resistant mouse model. In the oral glucose tolerance test, mice were fasted for 14 hours (7 p.m. to 9 a.m.) and then were orally administrated with glucose water (1.5 mg/g body weight) using a feeding needle. […] Blood glucose levels were measured using OneTouch® Ultra glucose test strips and SureStep® Meter (LifeScan, Milpitas, Calif.). […] Blood samples were collected and monitored at predetermined time points.

[1] = tested on: Cisd2 promoter with firefly luciferase reporter (HEK293-CISD2); assay: Cisd2-luciferase reporter assay; format: cell-based; settings: Homo sapiens; HEK293-CISD2 cells, 24 h incubation, luciferase activity
Experimental: Compounds 1-35 were tested for increasing the level of Cisd2 in human embryonic kidney cells 293 (HEK293), a transfected cell line expressing Cisd2, using the Cisd2-luciferase reporter assay as described below.
The transfected HEK293 cells stably expressed Cisd2 promoter with firefly luciferase reporter (“HEK293-CISD2”). They were kept in Dulbecco's modified Eagle's medium (“DMEM”) (Gibco, New York, N.Y.). Culture medium was supplemented with 10% heat-inactivated fetal bovine serum (“FBS”), 2 mM L-Glutamine, 1 mM sodium pyruvate, 0.1% MEM Non-Essential Amino Acids, 1 μg/ml puromycin and 1% penicillin/streptomycin (HyClone, Logan, Utah). The cells were maintained at 37° C. in an incubator (Thermo Fisher Scientific, Waltham, Mass.) with an atmosphere of 5% CO2. The stably transfected cells were seeded in 384-well plates at a density of 3×10^3 cells/well. After incubation with a tested compound at 37° C. for 24 h, ONE-Glo™ Luciferase Assay System (Promega, Madison, Wis.) was added at room temperature for 10 minutes to detect any luciferase activity. Luminescence intensity was registered using plate reader BioTek Synergy Neo2™ (Agilent, Santa Clara, Calif.).
EC50 values in this table are presented in […] classes, i.e., A: <1 μM and B: 1 μM-10 μM.

COC(=O)c1c(N)sc(C(=O)Nc2ccc(C)cc2C)c1C [Compound 1, Methyl 2-amino-5-[(2,4-dimethylphenyl)carbamoyl]-4-methylthiophene carboxylate]
liver and kidney toxicity (serum ALT, AST, BUN, CRE) (Cisd2 hKO-het mice): without detectable liver and kidney toxicity | expression level of Cisd2 protein (Cisd2 hKO-het mice; Cisd2+/- mice, control group 0.43): 0.7 | toxicity (WT mice): without obvious toxicity | Cisd2 protein level (WT mice; 30% fructose in drinking water, control group 0.4): 0.8 | EC50 [1]: < 1 µM
